The text below walks through data of paper PMC10494966 (RSC Advances, 2023).

The structures appear in SMILES notation.

The target of the experiment is T1, Pancreatic lipase (Sus scrofa, UniProt P00591).
T1 sequence (P00591 1-450): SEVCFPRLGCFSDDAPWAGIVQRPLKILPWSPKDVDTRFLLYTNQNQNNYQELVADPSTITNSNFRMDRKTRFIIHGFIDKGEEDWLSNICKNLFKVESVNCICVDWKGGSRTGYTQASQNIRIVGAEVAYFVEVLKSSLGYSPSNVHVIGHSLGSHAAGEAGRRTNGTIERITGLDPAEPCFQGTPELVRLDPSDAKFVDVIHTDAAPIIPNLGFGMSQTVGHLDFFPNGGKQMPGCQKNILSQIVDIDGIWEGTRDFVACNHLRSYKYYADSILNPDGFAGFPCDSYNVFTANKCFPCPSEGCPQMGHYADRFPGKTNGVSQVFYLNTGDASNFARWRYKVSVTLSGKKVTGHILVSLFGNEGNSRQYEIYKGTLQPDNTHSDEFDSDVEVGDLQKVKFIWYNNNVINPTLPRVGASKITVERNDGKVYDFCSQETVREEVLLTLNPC
The experiment is described as follows: spectrophotometric p-nitrophenyl palmitate hydrolysis, single concentration […]. It counts as biochemical.
Regarding `COc1cc2cc(Oc3ccc4ccc(=O)oc4c3)c(=O)oc2cc1O` [compound 1, daphnoretin], the inhibition (in general, the drop in the measured response relative to a control, in per cent) at 250 µM turned out to be 72%.
Regarding `COC(=O)c1c(O)cc(O)c2c1OC(c1ccc(O)cc1)C(O)C2` (stereo not shown) [compound 2, 5,7,4′-trihydroxy-8-methoxycarbonyl flavanol], the inhibition at 250 µM came to 52%.
The value for `O=C1c2c(O)cc(O)cc2O[C@H](c2ccc(O)cc2)[C@@H]1[C@@H]1C(=O)c2c(O)cc(O)cc2O[C@@H]1c1ccc(O)cc1` [compound 3, neochamaejasmin A] was 61.8%.
`C[C@@H]1O[C@@H](OC[C@H]2O[C@@H](Oc3c(-c4ccc(O)c(O)c4)oc4cc(O)cc(O)c4c3=O)[C@H](O[C@@H]3O[C@@H](C)[C@H](O)[C@@H](O)[C@H]3O)[C@@H](O)[C@H]2O)[C@H](O)[C@H](O)[C@H]1O` [compound 7, quercetin 3-O-α-L-rhamnopyranosyl-(1 → 2)-[α-L-rhamnopyranosyl-(1 → 6)]-β-D-galactopyranoside] returned an inhibition at 250 µM of 68%.
